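Results reflect a 48-hour exposure of cells in 96-well plates to compound at five concentrations. Here, GI50 denotes the concentration required for 50% inhibition of growth. TGI marks complete inhibition of growth.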
Columns and labels:
Test in all cases: NCI tumour cell line growth inhibition, 48 h
U251 CNS = test system: U251 CNS
SK-OV-3 ovarian = test system: SK-OV-3 ovarian
SNB-19 CNS = test system: SNB-19 CNS
HS 578T breast = test system: HS 578T breast
DU-145 prostate = test system: DU-145 prostate
HCT-116 colon = test system: HCT-116 colon
MDA-MB-231 breast = test system: MDA-MB-231 breast
SF-295 CNS = test system: SF-295 CNS
PC-3 prostate = test system: PC-3 prostate
SW-620 colon = test system: SW-620 colon
MCF7 breast = test system: MCF7 breast
K-562 leukemia = test system: K-562 leukemia
OVCAR-5 ovarian = test system: OVCAR-5 ovarian
SN12C renal = test system: SN12C renal
MDA-MB-435 = test system: MDA-MB-435
SR leukemia = test system: SR leukemia
OVCAR-4 ovarian = test system: OVCAR-4 ovarian
COLO 205 colon = test system: COLO 205 colon
MOLT-4 leukemia = test system: MOLT-4 leukemia
CCRF-CEM leukemia = test system: CCRF-CEM leukemia
HCC-2998 colon = test system: HCC-2998 colon
SF-268 CNS = test system: SF-268 CNS
CAKI-1 renal = test system: CAKI-1 renal
KM12 colon = test system: KM12 colon
LOX IMVI melanoma = test system: LOX IMVI melanoma
UACC-62 melanoma = test system: UACC-62 melanoma
A498 renal = test system: A498 renal
SF-539 CNS = test system: SF-539 CNS
NCI-H522 lung = test system: NCI-H522 lung
M14 melanoma = test system: M14 melanoma
UO-31 renal = test system: UO-31 renal
SNB-75 CNS = test system: SNB-75 CNS
OVCAR-8 ovarian = test system: OVCAR-8 ovarian
NCI-H460 lung = test system: NCI-H460 lung
OVCAR-3 ovarian = test system: OVCAR-3 ovarian
UACC-257 melanoma = test system: UACC-257 melanoma
RXF 393 renal = test system: RXF 393 renal
IGROV1 ovarian = test system: IGROV1 ovarian
HT29 colon = test system: HT29 colon
MDA-MB-468 breast = test system: MDA-MB-468 breast
RPMI-8226 leukemia = test system: RPMI-8226 leukemia
T-47D breast = test system: T-47D breast
HCT-15 colon = test system: HCT-15 colon
HOP-92 NSCLC = test system: HOP-92 NSCLC
NCI-H226 lung = test system: NCI-H226 lung
ACHN renal = test system: ACHN renal
MALME-3M melanoma = test system: MALME-3M melanoma
EKVX NSCLC = test system: EKVX NSCLC
NCI-H23 lung = test system: NCI-H23 lung
HL-60(TB) leukemia = test system: HL-60(TB) leukemia
HOP-62 NSCLC = test system: HOP-62 NSCLC
BT-549 breast = test system: BT-549 breast
A549 NSCLC = test system: A549 NSCLC
TK-10 renal = test system: TK-10 renal
SK-MEL-28 melanoma = test system: SK-MEL-28 melanoma
SK-MEL-5 melanoma = test system: SK-MEL-5 melanoma
786-0 renal = test system: 786-0 renal

Structure (SMILES): CCCCSc1nc(NCCc2c[nH]c3ccccc23)c(C#N)c(-c2ccccc2)n1
- GI50 (U251 CNS): 11.4 µM
- TGI (U251 CNS): 25.3 µM
- GI50 (SK-OV-3 ovarian): 22.4 µM
- TGI (SK-OV-3 ovarian): 61.3 µM
- GI50 (SNB-19 CNS): 17.2 µM
- TGI (SNB-19 CNS): 34.6 µM
- GI50 (HS 578T breast): 12.5 µM
- TGI (HS 578T breast): 61.5 µM
- GI50 (DU-145 prostate): 14.1 µM
- TGI (DU-145 prostate): 32.1 µM
- GI50 (HCT-116 colon): 3.82 µM
- TGI (HCT-116 colon): 16.5 µM
- GI50 (MDA-MB-231 breast): 11.1 µM
- TGI (MDA-MB-231 breast): 25.4 µM
- GI50 (SF-295 CNS): 13.8 µM
- TGI (SF-295 CNS): 29.8 µM
- GI50 (PC-3 prostate): 4.42 µM
- TGI (PC-3 prostate): 37.9 µM
- GI50 (SW-620 colon): 6.48 µM
- TGI (SW-620 colon): 23.3 µM
- GI50 (MCF7 breast): 5.26 µM
- TGI (MCF7 breast): 19.7 µM
- GI50 (K-562 leukemia): 4.91 µM
- TGI (K-562 leukemia): > 100 µM
- GI50 (OVCAR-5 ovarian): 12.6 µM
- TGI (OVCAR-5 ovarian): 26 µM
- GI50 (SN12C renal): 12.7 µM
- TGI (SN12C renal): 25.5 µM
- GI50 (MDA-MB-435): 13.7 µM
- TGI (MDA-MB-435): 27.4 µM
- GI50 (SR leukemia): 4.88 µM
- TGI (SR leukemia): > 100 µM
- GI50 (OVCAR-4 ovarian): 11.8 µM
- TGI (OVCAR-4 ovarian): 34.8 µM
- GI50 (COLO 205 colon): 11.5 µM
- TGI (COLO 205 colon): 29.5 µM
- GI50 (MOLT-4 leukemia): 5.73 µM
- TGI (MOLT-4 leukemia): 78.8 µM
- GI50 (CCRF-CEM leukemia): 5.38 µM
- TGI (CCRF-CEM leukemia): > 100 µM
- GI50 (HCC-2998 colon): 7.92 µM
- TGI (HCC-2998 colon): 21.8 µM
- GI50 (SF-268 CNS): 14.6 µM
- TGI (SF-268 CNS): 43.7 µM
- GI50 (CAKI-1 renal): 5.56 µM
- TGI (CAKI-1 renal): 20.7 µM
- GI50 (KM12 colon): 4.59 µM
- TGI (KM12 colon): 18 µM
- GI50 (LOX IMVI melanoma): 4.48 µM
- TGI (LOX IMVI melanoma): 15.5 µM
- GI50 (UACC-62 melanoma): 13.7 µM
- TGI (UACC-62 melanoma): 26.6 µM
- GI50 (A498 renal): 16.2 µM
- TGI (A498 renal): 31.6 µM
- GI50 (SF-539 CNS): 12.3 µM
- TGI (SF-539 CNS): 27.2 µM
- GI50 (NCI-H522 lung): 15.5 µM
- TGI (NCI-H522 lung): 32.5 µM
- GI50 (M14 melanoma): 12.3 µM
- TGI (M14 melanoma): 26.9 µM
- GI50 (UO-31 renal): 14.6 µM
- TGI (UO-31 renal): 34.3 µM
- GI50 (SNB-75 CNS): 14.1 µM
- TGI (SNB-75 CNS): 47 µM
- GI50 (OVCAR-8 ovarian): 23.7 µM
- TGI (OVCAR-8 ovarian): > 100 µM
- GI50 (NCI-H460 lung): 4.2 µM
- TGI (NCI-H460 lung): 18.4 µM
- GI50 (OVCAR-3 ovarian): 14.7 µM
- TGI (OVCAR-3 ovarian): 29.1 µM
- GI50 (UACC-257 melanoma): 20.4 µM
- TGI (UACC-257 melanoma): 47 µM
- GI50 (RXF 393 renal): 11.9 µM
- TGI (RXF 393 renal): 25.8 µM
- GI50 (IGROV1 ovarian): 16 µM
- TGI (IGROV1 ovarian): 32.3 µM
- GI50 (HT29 colon): 4.34 µM
- TGI (HT29 colon): 16.4 µM
- GI50 (MDA-MB-468 breast): 5.3 µM
- TGI (MDA-MB-468 breast): 18.8 µM
- GI50 (RPMI-8226 leukemia): 12.1 µM
- TGI (RPMI-8226 leukemia): > 100 µM
- GI50 (T-47D breast): 3.78 µM
- TGI (T-47D breast): 19.4 µM
- GI50 (HCT-15 colon): 4.44 µM
- TGI (HCT-15 colon): 16.9 µM
- GI50 (HOP-92 NSCLC): 5.54 µM
- TGI (HOP-92 NSCLC): 25.4 µM
- GI50 (NCI-H226 lung): 12.4 µM
- TGI (NCI-H226 lung): 27.3 µM
- GI50 (ACHN renal): 12.7 µM
- TGI (ACHN renal): 28.5 µM
- GI50 (MALME-3M melanoma): 17.7 µM
- TGI (MALME-3M melanoma): 32.6 µM
- GI50 (EKVX NSCLC): 10 µM
- TGI (EKVX NSCLC): 32.4 µM
- GI50 (NCI-H23 lung): 12.8 µM
- TGI (NCI-H23 lung): 27.9 µM
- GI50 (HL-60(TB) leukemia): 16 µM
- TGI (HL-60(TB) leukemia): 82.5 µM
- GI50 (HOP-62 NSCLC): 12.8 µM
- TGI (HOP-62 NSCLC): 29.7 µM
- GI50 (BT-549 breast): 12.3 µM
- TGI (BT-549 breast): 25.7 µM
- GI50 (A549 NSCLC): 22 µM
- TGI (A549 NSCLC): 82.3 µM
- GI50 (TK-10 renal): 26.1 µM
- TGI (TK-10 renal): 54.7 µM
- GI50 (SK-MEL-28 melanoma): 14.5 µM
- TGI (SK-MEL-28 melanoma): 29.1 µM
- GI50 (SK-MEL-5 melanoma): 9.88 µM
- TGI (SK-MEL-5 melanoma): 21.5 µM
- GI50 (786-0 renal): 10.5 µM
- TGI (786-0 renal): 27 µM

Reference: PubChem BioAssay (NCI)
